Reference: ChEMBL document CHEMBL1201862, “PubChem BioAssay data set” (2004)
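Compound exposure: 48 hours, 5 concentrations, 96-well plates. GI50 marks 50% less growth.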 Active and inactive are the calls of the source. Rule as the data show it: active = GI50 up to about 1.1 µM and inactive = higher.

How the values were obtained:
Assay in all cases: inhibition of tumour cell growth, NCI panel, 48 h
UACC-62 = system: UACC-62
DMS-114 = system: DMS-114
KM12 = system: KM12
UACC-257 = system: UACC-257
Malme-3M = system: Malme-3M
ACHN = system: ACHN
786-0 = system: 786-0
SN12C = system: SN12C
SF-295 = system: SF-295
NCI-H522 = system: NCI-H522
SF-539 = system: SF-539
HT-29 = system: HT-29
EKVX = system: EKVX
U-251 = system: U-251
NCI-H23 = system: NCI-H23
SNB-19 = system: SNB-19
OVCAR-5 = system: OVCAR-5
SK-MEL-2 = system: SK-MEL-2

Measured: GI50

COC(=O)Cc1c([C@@]2(C)CCCC(C)(C)C2)ccc2c1C(=O)OC2
inactive: UACC-62 10.6 µM | DMS-114 3.96 µM | KM12 8.15 µM | UACC-257 5.66 µM | Malme-3M 17.9 µM | ACHN 11.7 µM | 786-0 15.7 µM | SN12C 10.1 µM | SF-295 10.3 µM | NCI-H522 5.04 µM | SF-539 15.6 µM | HT-29 10.8 µM | EKVX 18.1 µM | U-251 13.3 µM | NCI-H23 9.35 µM

COc1ccc(C[C@]23CCC(=O)N2CCc2cc(OC)c(O)cc23)cc1O
inactive: UACC-62 > 100 µM | DMS-114 > 100 µM | KM12 > 100 µM | UACC-257 > 100 µM | SNB-19 > 100 µM | Malme-3M > 100 µM | ACHN > 100 µM | 786-0 > 100 µM | SN12C > 100 µM | SF-295 > 100 µM | SF-539 > 100 µM | HT-29 > 100 µM | EKVX > 100 µM | NCI-H23 > 100 µM | OVCAR-5 > 100 µM

CCCCc1c2c(nc3c1CC/C(=C\c1ccccc1)C3=O)CCCC2
inactive: UACC-62 2.72 µM | DMS-114 7.74 µM | KM12 3.85 µM | UACC-257 5.78 µM | SNB-19 3.48 µM | Malme-3M 7.33 µM | ACHN 12.1 µM | 786-0 2.33 µM | SN12C 3.18 µM | SF-295 4.47 µM | NCI-H522 2.15 µM | SF-539 2.29 µM | HT-29 2.22 µM | EKVX 12.2 µM | U-251 3.49 µM | NCI-H23 5.43 µM

COc1cc2c(cc1O)C=NCC2
inactive: UACC-62 > 100 µM | DMS-114 > 100 µM | KM12 > 100 µM | UACC-257 > 100 µM | SNB-19 > 100 µM | Malme-3M > 100 µM | ACHN > 100 µM | 786-0 > 100 µM | SN12C > 100 µM | SF-295 > 100 µM | NCI-H522 > 100 µM | SF-539 > 100 µM | EKVX > 100 µM | U-251 > 100 µM | NCI-H23 > 100 µM | OVCAR-5 > 100 µM | SK-MEL-2 > 100 µM

CC1(C)C(=O)C(C)(C)C1=NN
inactive: UACC-62 > 100 µM | DMS-114 > 100 µM | KM12 > 100 µM | UACC-257 > 100 µM | SNB-19 > 100 µM | Malme-3M > 100 µM | ACHN > 100 µM | 786-0 > 100 µM | SN12C > 100 µM | SF-295 > 100 µM | NCI-H522 > 100 µM | SF-539 > 100 µM | HT-29 > 100 µM | U-251 > 100 µM | NCI-H23 > 100 µM | OVCAR-5 > 100 µM

CC(=O)C1Cn2c(=O)c3cc4ccccc4cc3c(=O)n2C=C1C (configuration not stated)
inactive: DMS-114 > 100 µM | KM12 > 100 µM | UACC-257 > 100 µM | SNB-19 > 100 µM | Malme-3M > 100 µM | ACHN > 100 µM | 786-0 > 100 µM | SN12C > 100 µM | SF-295 > 100 µM | NCI-H522 > 100 µM | SF-539 > 100 µM | EKVX > 100 µM | U-251 > 100 µM | NCI-H23 > 100 µM | OVCAR-5 > 100 µM | SK-MEL-2 > 100 µM

COc1cccc(NC(=O)CSc2nnc(-c3ccc(NC(C)=O)cc3)o2)c1
inactive: UACC-62 > 100 µM | DMS-114 > 100 µM | KM12 49.4 µM | UACC-257 > 100 µM | Malme-3M > 100 µM | ACHN > 100 µM | 786-0 > 100 µM | SN12C > 100 µM | SF-295 > 100 µM | NCI-H522 > 100 µM | HT-29 39.6 µM | U-251 > 100 µM | NCI-H23 > 100 µM | OVCAR-5 83.2 µM | SK-MEL-2 > 100 µM

N#C/C(=C(/S)Nc1ccccc1)c1nc2ccccc2[nH]1
inactive: UACC-62 > 10 µM | DMS-114 > 10 µM | KM12 > 10 µM | UACC-257 > 10 µM | SNB-19 > 10 µM | Malme-3M > 10 µM | ACHN > 10 µM | 786-0 > 10 µM | SN12C > 10 µM | NCI-H522 > 10 µM | SF-539 > 10 µM | EKVX > 10 µM | U-251 > 10 µM | NCI-H23 > 10 µM | OVCAR-5 > 10 µM | SK-MEL-2 > 10 µM

Cc1cc(C=O)c2c(=O)c3c(O)ccc(/C=C/C(C)C)c3oc2c1
inactive: UACC-62 56.8 µM | DMS-114 41.4 µM | KM12 86.9 µM | UACC-257 > 100 µM | SNB-19 > 100 µM | Malme-3M > 100 µM | ACHN 46.3 µM | 786-0 39.8 µM | SF-295 > 100 µM | NCI-H522 28.7 µM | SF-539 > 100 µM | HT-29 > 100 µM | U-251 41.1 µM | NCI-H23 46.7 µM | OVCAR-5 > 100 µM | SK-MEL-2 > 100 µM
